ChEMBL document CHEMBL1134382, “Estimation of binding affinities for selective thrombin inhibitors via Monte Carlo simulations” (J Med Chem, 2001)

The compounds below were run against Prothrombin (Homo sapiens, UniProt P00734) (assay: Binding affinity was determined against human thrombin).
With `CN(C(=O)[C@H](Cc1ccc(C(N)NN)cc1)NS(=O)(=O)Cc1ccccc1)C1CCCC1` (stereo partly specified) the Ki was 18.4 nM.
Compound `CS(=O)(=O)N1CCN(C(=O)[C@H](Cc2ccc(C(N)NN)cc2)NS(=O)(=O)c2ccc3ccccc3c2)CC1` (stereo partly specified) has a Ki of 11 nM.
With `CN(C(=O)[C@H](Cc1ccc(CCN)cc1)NS(=O)(=O)c1ccc2ccccc2c1)C1CCCC1` the Ki was 3.3 nM.
With `CN(C(=O)[C@H](Cc1ccc(C(N)NN)cc1)NS(=O)(=O)c1ccc2c(c1)CCCC2)C1CCCC1` (stereo partly specified) the Ki was 0.12 nM.
Compound `CN(C)c1cccc2c(S(=O)(=O)N[C@@H](Cc3ccc(C(N)NN)cc3)C(=O)N(C)C3CCCC3)cccc12` (stereo partly specified) has a Ki of 0.3 nM.
`CCOC(=O)N1CCN(C(=O)[C@H](Cc2ccc(C(N)NN)cc2)NS(=O)(=O)c2ccc3ccccc3c2)CC1` (stereo partly specified) gave a Ki of 3300 nM.
`CN(C(=O)[C@H](Cc1ccc(C(N)NN)cc1)NS(=O)(=O)c1cccc2ccccc12)C1CCCC1` (stereo partly specified) showed a Ki of 8 nM.
`CN(C(=O)[C@H](Cc1ccc(C(N)NN)cc1)NS(=O)(=O)c1ccc2cc3ccccc3cc2c1)C1CCCC1` (stereo partly specified) showed a Ki of 0.1 nM.
`CN(C(=O)[C@H](Cc1ccc(C(N)NN)cc1)NS(=O)(=O)c1ccc2ccccc2c1)C1CCCC1` (stereo partly specified) showed a Ki of 0.38 nM.
`CN(C(=O)[C@H](Cc1ccc(C(N)NN)cc1)NS(=O)(=O)c1cccc2c1CCCC2)C1CCCC1` (stereo partly specified) gave a Ki of 3.8 nM.
Compound `CN(C(=O)[C@H](Cc1ccc(C(N)NN)cc1)NS(=O)(=O)c1ccc2c(c1)CCCCC2)C1CCCC1` (stereo partly specified) has a Ki of 0.045 nM.

The compounds below were run against Prothrombin (Bos taurus, UniProt P00735) (assay: Binding affinity was determined against bovine thrombin.).
With `CNC(N)c1ccc(C[C@H](NS(=O)(=O)c2ccc3ccccc3c2)C(=O)N2CCCCCC2)cc1` (stereo partly specified) the Ki was 45.5 nM.
With `CNC(N)c1ccc(C[C@@H](NC(=O)CNS(=O)(=O)c2ccc3ccccc3c2)C(=O)N2CCCCC2)cc1` (stereo partly specified) the Ki was 5370 nM.
For `CN(C(=O)[C@H](Cc1ccc(C(N)NN)cc1)NS(=O)(=O)c1ccc2ccccc2c1)C1CCCCC1` (stereo partly specified), the Ki was 152 nM.
For `CN(C(=O)[C@H](Cc1ccc(C(N)NN)cc1)NS(=O)(=O)c1ccc2ccccc2c1)C1CC1` (stereo partly specified), the Ki was 247 nM.
For `CCCCN(C)C(=O)[C@H](Cc1ccc(C(N)NN)cc1)NS(=O)(=O)c1ccc2ccccc2c1` (stereo partly specified), the Ki was 41 nM.
Work on `NC(N)c1ccc(C[C@H](NS(=O)(=O)c2ccc3ccccc3c2)C(=O)N2CCCCCC2)cc1` yielded a Ki of 52.4 nM.
In the case of `NNC(N)c1ccc(C[C@H](NS(=O)(=O)c2ccc3ccccc3c2)C(=O)N2CCCCCC2)cc1` (stereo partly specified), the Ki is reported as 1.5 nM.
`CN(C(=O)[C@H](Cc1ccc(C(N)NN)cc1)NS(=O)(=O)c1ccc2ccccc2c1)C1CCCC1` (stereo partly specified) gave a Ki of 1.1 nM.
`NNC(N)c1ccc(C[C@@H](NC(=O)CNS(=O)(=O)c2ccc3ccccc3c2)C(=O)N2CCCCC2)cc1` (stereo partly specified) was tested, and the Ki was 4320 nM.
`NC(N)c1ccc(C[C@@H](NC(=O)CNS(=O)(=O)c2ccc3ccccc3c2)C(=O)N2CCCCC2)cc1` gave a Ki of 6.5 nM.
